One series has as its system PSN-1. To be noted: MTT assay; only when cultured under minimal glucose in the growth medium; cited from earlier work. From the text: (§1) Intriguingly, there exists a precedence for this observation: the recent discovery of the leucinostatin Y by Kawada’s group was also reported alongside a comparative […] (MTT) assay against the parent peptide leucinostatin A (1) on the human PDAC cell lines PANC-1, BxPC-3, PSN-1, and PK-8 [21]. […] On this basis, we opted to re-evaluate the cytotoxicity of both trichoderins (3) and (4) against BxPC-3 and ...

Another series relates to PK-8. To be noted: MTT assay; only when cultured under minimal glucose in the growth medium; cited from earlier work.
Source text: as §1
A general note: Tetrazolium dyes change colour on reduction, which living cells bring about.

For another series, the system named is BxPC-3. The conditions noted are these: MTT assay; only when cultured under minimal glucose in the growth medium; cited from earlier work.
Source text: as §1

The test system of another series is PANC-1. The conditions noted are these: MTT assay; only when cultured under minimal glucose in the growth medium; cited from earlier work.
Source text: as §1

The test system of series [1] is DU-145 human prostate cancer cells. To be noted: coculture model with prostate stromal cells (PrSC); cited from earlier work. From the text:
(§2) Over the last decade, research in our group has focused on the synthesis and biological evaluation of aminolipopeptides as new generation anticancer therapeutics. They are structurally defined by the α,α-dialkylated amino acid 2-aminoisobutyric acid (Aib) and an acylated N-terminus. A subset of this family, containing the non-natural building block 2-amino-6-hydroxy-4-methyl-8-oxodecanoic acid (AHMOD), has provided two promising leads in leucinostatin A (1) and culicinin D (2).

The test system of series [2] is PANC-1 cells. In words: CyQUANT Direct cell proliferation assay, comparative cytotoxicity assay under 'low glucose'. In kind it is cell-based, human. To be noted: 24 h exposure; for pIC50: 'low glucose' DMEM (no glucose added), 457 pM to 9 µM, three independent experiments each in technical duplicate; for AUC, CyQUANT Direct, PANC-1 / Emax @ 9 µM, CyQUANT Direct, PANC-1: 'low glucose', three independent experiments in duplicate; for AUC, CyQUANT Direct, PANC-1: area under viability-concentration curve, baseline y = 0; for Emax @ 9 µM, CyQUANT Direct, PANC-1: response (percent viability) at highest concentration 9 µM. The source says: (§3) Endpoint fluorescence was quantified as described above.

Series [3] has as its system BxPC-3 cells. The series is described as above. In kind it is cell-based, human. The conditions noted are these: 24 h exposure; for pIC50: 'low glucose' RPMI 1640 (no glucose added), 50.8 pM to 1 µM, three independent experiments each in technical duplicate; for AUC, CyQUANT Direct, BxPC-3 / Emax @ 1 µM, CyQUANT Direct, BxPC-3: 'low glucose', three independent experiments in duplicate; for AUC, CyQUANT Direct, BxPC-3: area under viability-concentration curve, baseline y = 0; for Emax @ 1 µM, CyQUANT Direct, BxPC-3: response (percent viability) at highest concentration 1 µM.
Source text: as §3

Series [4] has as its system PANC-1 cells. Put plainly: PrestoBlue cell viability assay, comparative cytotoxicity assay under 'low glucose'. It is filed as cell-based, human. The conditions noted are these: 24 h exposure; for pIC50: 'low glucose' DMEM (no glucose added), 457 pM to 9 µM, three independent experiments each in technical duplicate; for AUC, PrestoBlue, PANC-1 / Emax @ 9 µM, PrestoBlue, PANC-1: 'low glucose', three independent experiments in duplicate; for AUC, PrestoBlue, PANC-1: area under viability-concentration curve, baseline y = 0; for Emax @ 9 µM, PrestoBlue, PANC-1: response (percent viability) at highest concentration 9 µM.
Source text: as §3

The subject of series [5] is BxPC-3 cells. The description is as above. It is filed as cell-based, human. To be noted: 24 h exposure; for pIC50: 'low glucose' RPMI 1640 (no glucose added), 50.8 pM to 1 µM, three independent experiments each in technical duplicate; for AUC, PrestoBlue, BxPC-3 / Emax @ 1 µM, PrestoBlue, BxPC-3: 'low glucose', three independent experiments in duplicate; for AUC, PrestoBlue, BxPC-3: area under viability-concentration curve, baseline y = 0; for Emax @ 1 µM, PrestoBlue, BxPC-3: response (percent viability) at highest concentration 1 µM.
Source text: as §3

Series [6] has as its system PANC-1 cells. To be noted: 24 h exposure, medium with or without 5 mM glucose, up to 9 µM. On the procedure:
(§4) Cells were seeded at a density of 25,000 cells/well (BxPC-3) and 30,000 cells/well (PANC-1) in Nunc MicroWell 96-Well Black Optical-Bottom Plates with Polymer Base (total volume: 100 µL). Cells were first incubated overnight at 37 °C, 5% CO2 to permit adherence, after which the medium in each well was aspirated, briefly washed once with 100 µL/well of PBS (pH 7.4) and replaced with 100 µL of either RPMI 1640 (BxPC-3, #11879020) or DMEM (PANC-1, #11966025) supplemented with or without 5 mM glucose to create the ‘normal glucose’ and ‘low glucose’ media, respectively. This 5 mM glucose concentration was selected to reflect the physiological concentration of glucose in plasma. Each well was then exposed to the peptides in duplicate at a concentration range of 50.8 pM to 1 µM (BxPC-3) or 457 pM to 9 µM (PANC-1) for 24 h (threefold serial dilution in the corresponding ‘normal glucose’ or ‘low glucose’ media, ten steps). Endpoint fluorescence was quantified as described above.
(§5) Blank correction (wells containing medium only) was first performed on the raw fluorescence–concentration data from the plate reader. Cell viability was then calculated as a percentage by normalizing to the fluorescence of the wells containing the lowest drug concentration (50.8 pM for BxPC-3, 457 pM for PANC-1). The resulting data from three independent experiments (each in technical duplicate) was then plotted on GraphPad Prism 9 and analyzed using the built-in ‘[Inhibitor] vs. response—Variable slope (four parameters)’ equation.

The test system of series [7] is BxPC-3 cells. To be noted: 24 h exposure, medium with or without 5 mM glucose, up to 1 µM. As for the experimental part:
as §4, §5

The subject of series [8] is BxPC-3 cells. Put plainly: Initial cytotoxicity assay (PrestoBlue and CyQUANT Direct Confirmation Assay), 25 mM glucose. It is filed as cell-based, human. The conditions noted are these: 3-day (72 h) incubation, RPMI-1640 with 25 mM glucose, up to highest concentration tested of 1 µM, both viability assays. On the procedure: The CyQUANT™ Direct Cell Proliferation Assay was subsequently performed by mixing the CyQUANT™ Direct nucleic acid stain, CyQUANT™ Direct background suppressor I, and PBS (pH 7.4) as per the vendor instructions, then adding 100 µL of this mixture into each well. The plate was returned into the incubator for a further 1 h, and the endpoint fluorescence bottom-read at the Ex/Em wavelength of 485/538 nm on the SpectraMax iD3 plate reader. Blank wells (medium only) and two negative controls—(1) cells + medium, (2) cells + medium + 0.3% v/v DMSO (equivalent to 1 µM peptide)—were set up in the plate for each experiment.

The subject of series [9] is MDA-MB-468 human breast cancer cells. The conditions noted are these: via inhibition of the mTOR signaling pathway; cited from earlier work.
Source text: as §2

pIC50: −log10 of the molar value. Square brackets hold non-standard residues; d marks the D form. Peptide text beside a SMILES is read from it. * marks the point of attachment. Alaψ(CH2NMeCH2CH2OH) = C[C@@H](CN(C)CCO)N*; Decanoyl(2R-Me) = CCCCCCCC[C@@H](C)C(=O)*; Cha = N[C@@H](CC1CCCCC1)C(=O)O; Aib = CC(C)(N)C(=O)O

The pIC50 is −log10 of the IC50, conventionally taken in molar units.

Consider leucinostatin A [(1)], for which the “Cytotoxicity against PSN-1 (in words)” value with PSN-1 is “selectively cytotoxic”. Moreover, the “Cytotoxicity against PK-8 (in words)” value with PK-8 was “selectively cytotoxic”. In the series with BxPC-3, the “Cytotoxicity against BxPC-3 (in words)” value is recorded as “selectively cytotoxic”. Moreover, the “Cytotoxicity against PANC-1 (in words)” value in the series on PANC-1 is reported as “selectively cytotoxic”. In addition, the “Cytotoxicity against DU-145 (in words)” value in series [1] is “cytotoxic”.
As to `CC[C@H](C)[C@H](NC(=O)C(C)(C)NC(=O)C(C)(C)NC(=O)[C@H](CC1CCCCC1)NC(=O)[C@@H]1CCCN1)C(=O)N[C@H](C(=O)NC(C)(C)C(=O)NC(C)(C)C(=O)N[C@@H](C)CN(C)CCO)C(C)C` [(12)] (H-P[Cha][Aib][Aib]IV[Aib][Aib]-{Alaψ(CH2NMeCH2CH2OH)}), in the series on PANC-1 cells [2], the pIC50 is < 5.05; the “AUC, CyQUANT Direct, PANC-1” value is listed as 92.6 ×10^−5; the “Emax @ 9 µM, CyQUANT Direct, PANC-1” value is 107.0%. Further, in the series on BxPC-3 cells [3], the pIC50 was < 6.00; the “AUC, CyQUANT Direct, BxPC-3” value is listed as 11 ×10^−5; the “Emax @ 1 µM, CyQUANT Direct, BxPC-3” value stood at 115.0%. Also, in the series on PANC-1 cells [4], the pIC50 was < 5.05; the “AUC, PrestoBlue, PANC-1” value is listed as 90.6 ×10^−5; the “Emax @ 9 µM, PrestoBlue, PANC-1” value was found to be 101.0%. Also, in the series on BxPC-3 cells [5], the pIC50 was < 6.00; the “AUC, PrestoBlue, BxPC-3” value is 10.2 ×10^−5; the “Emax @ 1 µM, PrestoBlue, BxPC-3” value came to 104.0%. Also, the “Cytotoxicity against PANC-1 under 'low glucose' vs 'normal glucose' (in words)” value in the series with PANC-1 cells [6] is “inactivity”. In addition, the “Cytotoxicity against BxPC-3 under 'low glucose' vs 'normal glucose' (in words)” value in the series with BxPC-3 cells [7] was “inactivity”.
Take `CCCCCCCC[C@@H](C)C(=O)N1CCC[C@H]1C(=O)N[C@@H](CC1CCCCC1)C(=O)NC(C)(C)C(=O)NC(C)(C)C(=O)N[C@H](C(=O)N[C@H](C(=O)NC(C)(C)C(=O)NC(C)(C)C(=O)N[C@@H](C)CN(C)CCO)C(C)C)[C@@H](C)CC` [(4)] ({Decanoyl(2R-Me)}-P[Cha][Aib][Aib]IV[Aib][Aib]-{Alaψ(CH2NMeCH2CH2OH)}): in the series on PANC-1 cells [2], the pIC50 was 5.89; the “AUC, CyQUANT Direct, PANC-1” value was 39.6 ×10^−5; the “Emax @ 9 µM, CyQUANT Direct, PANC-1” value was found to be 29.2%. For the same molecule, in the series on BxPC-3 cells [3], the pIC50 is 6.40; the “AUC, CyQUANT Direct, BxPC-3” value is listed as 5.4 ×10^−5; the “Emax @ 1 µM, CyQUANT Direct, BxPC-3” value is listed as 21.0%. Further, in the series with PANC-1 cells [4], the pIC50 is 6.30; the “AUC, PrestoBlue, PANC-1” value is listed as 23.1 ×10^−5; the “Emax @ 9 µM, PrestoBlue, PANC-1” value was 2.3%. Further, in the series on BxPC-3 cells [5], the pIC50 was 6.40; the “AUC, PrestoBlue, BxPC-3” value is given as 5.1 ×10^−5; the “Emax @ 1 µM, PrestoBlue, BxPC-3” value came to 1.7%. The “Inhibition of proliferation of BxPC-3 cells (in words)” value in the series with BxPC-3 cells [8] is recorded as “only partially inhibited the proliferation”. The “Cytotoxicity against PANC-1 under 'low glucose' vs 'normal glucose' (in words)” value with PANC-1 cells [6] is reported as “selective toxicity under the ‘low glucose’ condition”. The “Cytotoxicity against BxPC-3 under 'low glucose' vs 'normal glucose' (in words)” value in the series on BxPC-3 cells [7] is recorded as “selective toxicity under the ‘low glucose’ condition”.
culicinin D [(2)]: the “Toxicity against MDA-MB-468 (in words)” value in [9] was “selectively toxic”.

Values taken from PMC9866366 (Pharmaceutics, 2023).
